Results taken from ChEMBL document CHEMBL1139933, “Synthesis of andrographolide derivatives: a new family of alpha-glucosidase inhibitors” (Bioorg Med Chem, 2007).
pIC50: −log10 of the molar value. Activity calls are given as the source filed them. The calls are words filed in the database; no cut-off is given here.

Biological target: T1, Maltase-glucoamylase (Homo sapiens, UniProt O43451)
Test: Inhibition of alpha-glucosidase at 100 uM
Target sequence in this assay (O43451 whole entry, looked up): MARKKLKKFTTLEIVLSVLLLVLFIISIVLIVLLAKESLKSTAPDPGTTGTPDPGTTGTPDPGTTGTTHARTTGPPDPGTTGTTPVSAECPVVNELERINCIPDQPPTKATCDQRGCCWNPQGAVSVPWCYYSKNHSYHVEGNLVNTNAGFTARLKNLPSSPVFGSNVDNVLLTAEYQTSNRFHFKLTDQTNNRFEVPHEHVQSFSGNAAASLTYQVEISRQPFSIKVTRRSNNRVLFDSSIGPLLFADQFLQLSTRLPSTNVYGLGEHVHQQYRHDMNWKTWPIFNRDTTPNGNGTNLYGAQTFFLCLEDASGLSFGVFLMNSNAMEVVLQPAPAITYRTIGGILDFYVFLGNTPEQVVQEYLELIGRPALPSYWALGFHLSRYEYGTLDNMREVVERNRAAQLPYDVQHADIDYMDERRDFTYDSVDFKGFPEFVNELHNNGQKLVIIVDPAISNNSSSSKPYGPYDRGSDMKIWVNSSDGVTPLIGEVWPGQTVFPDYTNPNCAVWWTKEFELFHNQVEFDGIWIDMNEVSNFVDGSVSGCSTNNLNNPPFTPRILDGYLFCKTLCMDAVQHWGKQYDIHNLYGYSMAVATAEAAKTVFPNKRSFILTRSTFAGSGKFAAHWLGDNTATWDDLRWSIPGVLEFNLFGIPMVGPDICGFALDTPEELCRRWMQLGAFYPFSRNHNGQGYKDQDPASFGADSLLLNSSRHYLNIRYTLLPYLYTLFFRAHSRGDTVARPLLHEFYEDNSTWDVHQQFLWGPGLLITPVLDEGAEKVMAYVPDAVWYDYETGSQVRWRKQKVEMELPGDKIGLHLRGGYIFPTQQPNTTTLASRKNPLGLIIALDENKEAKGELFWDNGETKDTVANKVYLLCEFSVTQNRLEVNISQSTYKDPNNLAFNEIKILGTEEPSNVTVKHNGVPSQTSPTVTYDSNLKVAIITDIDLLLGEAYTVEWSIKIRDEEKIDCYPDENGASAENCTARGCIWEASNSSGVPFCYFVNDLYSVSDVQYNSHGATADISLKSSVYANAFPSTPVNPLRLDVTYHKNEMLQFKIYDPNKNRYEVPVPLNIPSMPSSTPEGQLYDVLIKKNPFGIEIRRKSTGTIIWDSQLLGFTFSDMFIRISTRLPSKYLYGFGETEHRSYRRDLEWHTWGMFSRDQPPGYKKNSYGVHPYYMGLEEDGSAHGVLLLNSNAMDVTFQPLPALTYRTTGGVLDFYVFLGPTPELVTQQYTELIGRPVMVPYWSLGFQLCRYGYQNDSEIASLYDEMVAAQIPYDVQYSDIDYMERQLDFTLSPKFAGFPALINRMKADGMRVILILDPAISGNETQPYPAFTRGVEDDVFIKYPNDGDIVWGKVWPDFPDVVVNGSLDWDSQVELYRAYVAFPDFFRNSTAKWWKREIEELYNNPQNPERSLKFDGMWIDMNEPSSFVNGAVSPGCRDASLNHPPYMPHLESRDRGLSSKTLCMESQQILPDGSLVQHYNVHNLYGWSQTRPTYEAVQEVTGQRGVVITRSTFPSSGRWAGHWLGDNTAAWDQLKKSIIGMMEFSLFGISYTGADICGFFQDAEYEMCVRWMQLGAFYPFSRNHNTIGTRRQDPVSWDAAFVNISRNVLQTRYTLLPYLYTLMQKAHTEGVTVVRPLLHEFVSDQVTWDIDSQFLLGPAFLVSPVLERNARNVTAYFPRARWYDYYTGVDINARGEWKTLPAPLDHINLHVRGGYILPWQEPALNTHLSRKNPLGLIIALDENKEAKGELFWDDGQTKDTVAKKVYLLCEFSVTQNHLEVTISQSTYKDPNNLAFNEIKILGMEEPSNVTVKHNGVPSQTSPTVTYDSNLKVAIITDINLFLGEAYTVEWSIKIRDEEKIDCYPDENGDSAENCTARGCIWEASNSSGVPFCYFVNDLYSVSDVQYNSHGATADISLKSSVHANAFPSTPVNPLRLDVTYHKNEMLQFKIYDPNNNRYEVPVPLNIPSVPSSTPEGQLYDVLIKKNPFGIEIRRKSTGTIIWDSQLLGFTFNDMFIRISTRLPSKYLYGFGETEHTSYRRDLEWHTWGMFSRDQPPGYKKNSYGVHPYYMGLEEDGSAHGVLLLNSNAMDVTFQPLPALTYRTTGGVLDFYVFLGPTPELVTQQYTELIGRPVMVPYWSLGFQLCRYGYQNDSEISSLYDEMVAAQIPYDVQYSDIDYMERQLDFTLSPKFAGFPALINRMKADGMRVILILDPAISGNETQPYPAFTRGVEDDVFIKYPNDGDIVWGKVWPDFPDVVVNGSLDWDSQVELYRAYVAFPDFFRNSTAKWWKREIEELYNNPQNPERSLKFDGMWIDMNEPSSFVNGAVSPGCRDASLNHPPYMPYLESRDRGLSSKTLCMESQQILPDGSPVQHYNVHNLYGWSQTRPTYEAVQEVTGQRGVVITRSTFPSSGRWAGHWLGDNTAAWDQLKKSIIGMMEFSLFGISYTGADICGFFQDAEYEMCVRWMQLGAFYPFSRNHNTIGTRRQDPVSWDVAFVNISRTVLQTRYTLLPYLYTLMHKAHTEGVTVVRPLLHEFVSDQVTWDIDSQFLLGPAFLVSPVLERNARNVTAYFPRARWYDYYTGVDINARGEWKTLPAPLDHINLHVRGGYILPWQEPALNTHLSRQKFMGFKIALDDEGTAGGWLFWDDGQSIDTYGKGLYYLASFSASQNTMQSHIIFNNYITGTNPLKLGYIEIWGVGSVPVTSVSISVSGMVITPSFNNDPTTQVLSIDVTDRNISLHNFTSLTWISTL

inhibition [%] | Activity | SMILES
6.9 |  | C=C1CC[C@@H]2[C@]3(C)COCO[C@@H]3CC[C@@]2(C)[C@@H]1CC(O)C1=CCOC1=O (stereo partly specified)
57.8 |  | C=C1CC[C@@H]2[C@](C)(CO)[C@H](O)CC[C@@]2(C)[C@@H]1/C=C/C1=CC(=C/c2cc(OC)c(OC)cc2OC)/OC1=O
100 |  | C=C1CC[C@@H]2[C@](C)(COC(=O)c3cccnc3)[C@H](OC(=O)c3cccnc3)CC[C@@]2(C)[C@@H]1/C=C/C1=CC(=C\c2ccc(Cl)cc2)/OC1=O
 | inactive | C=C1CC[C@@H]2[C@](C)(CO)[C@H](O)CC[C@@]2(C)[C@@H]1/C=C/C1=CC(=C/c2ccc(F)cc2)/OC1=O
 | inactive | C[C@]1(CO)[C@H]2CC[C@@]3(CO3)[C@@H](C/C=C3/C(=O)OC[C@H]3O)[C@]2(C)CC[C@H]1O
100 |  | C=C1CC[C@@H]2[C@](C)(COC(=O)c3cccnc3)[C@H](OC(=O)c3cccnc3)CC[C@@]2(C)[C@@H]1/C=C/C1=CC(=C\c2ccccc2)/OC1=O
60.6 |  | C=C1CC[C@@H]2[C@](C)(CO)[C@H](O)CC[C@@]2(C)[C@@H]1/C=C/C1=CC(=C/c2ccc(N(C)C)cc2)/OC1=O
59.3 |  | C=C1CC[C@@H]2[C@](C)(CO)[C@H](O)CC[C@@]2(C)[C@@H]1/C=C/C1=CC(=C/c2ccc3c(c2)OCO3)/OC1=O
 | inactive | C=C1CC[C@@H]2[C@](C)(CO)[C@H](O)CC[C@@]2(C)[C@@H]1/C=C/C1=CC(=C/c2ccc(Cl)cc2)/OC1=O
95.9 |  | C=C1CC[C@@H]2[C@](C)(COC(=O)c3cccnc3)[C@H](OC(=O)c3cccnc3)CC[C@@]2(C)[C@@H]1/C=C/C1=CC(=C/c2ccco2)/OC1=O
 | inactive | C=C1CC[C@@H]2[C@](C)(CO)[C@H](O)CC[C@@]2(C)[C@@H]1CCC1CCOC1=O (stereo partly specified)
 | inactive | C=C1CC[C@@H]2[C@](C)(CO)[C@H](O)CC[C@@]2(C)[C@@H]1C/C=C1/C(=O)OC[C@H]1O
100 |  | C=C1CC[C@@H]2[C@](C)(COC(=O)c3cccnc3)[C@H](OC(=O)c3cccnc3)CC[C@@]2(C)[C@@H]1/C=C/C1=CC(=C\c2cccc(Br)c2)/OC1=O
74.8 |  | C=C1CC[C@@H]2[C@](C)(COC(=O)c3cccnc3)[C@H](OC(=O)c3cccnc3)CC[C@@]2(C)[C@@H]1/C=C/C1=CC(=C\c2ccc(N(C)C)cc2)/OC1=O
49.6 |  | C=C1CC[C@@H]2[C@](C)(CO)[C@H](O)CC[C@@]2(C)[C@@H]1/C=C/C1=CC(=C/c2ccco2)/OC1=O
84.3 |  | C=C1CC[C@@H]2[C@](C)(CO)[C@H](O)CC[C@@]2(C)[C@@H]1/C=C/C1=CC(=C/c2ccccc2)/OC1=O
 | inactive | C=C1CC[C@@H]2[C@](C)(CO)[C@H](O)CC[C@@]2(C)[C@@H]1/C=C/C1=CC(=C\C(C)=C\CCC/C=C/C)/OC1=O
100 |  | C=C1CC[C@@H]2[C@](C)(COC(=O)c3cccnc3)[C@H](OC(=O)c3cccnc3)CC[C@@]2(C)[C@@H]1/C=C/C1=CC(=C\c2ccc(OC)cc2)/OC1=O
68.9 |  | C=C1CC[C@@H]2[C@](C)(COC(=O)c3cccnc3)[C@H](OC(=O)c3cccnc3)CC[C@@]2(C)[C@@H]1/C=C/C1=CC(=C\C(C)=C\CCC/C=C/C)/OC1=O

Biological target: T1, Maltase-glucoamylase
Test: Inhibition of alpha-glucosidase at 1 mM
Target sequence in this assay (O43451 whole entry, looked up): as above

inhibition [%] | SMILES
56.5 | C[C@H]1O[C@H](O[C@H]2[C@H](O)[C@@H](O)[C@@H](O[C@H]3[C@H](O)[C@@H](O)C(O)O[C@@H]3CO)O[C@@H]2CO)[C@H](O)[C@@H](O)[C@@H]1N[C@H]1C=C(CO)[C@@H](O)[C@H](O)[C@H]1O (stereo partly specified)

Biological target: T1, Maltase-glucoamylase
Test: Inhibition of alpha-glucosidase
Target sequence in this assay (O43451 whole entry): as the sequence (O43451 whole entry, looked up) above

pIC50 | SMILES
4.80 | C=C1CC[C@@H]2[C@](C)(CO)[C@H](O)CC[C@@]2(C)[C@@H]1/C=C/C1=CC(=C/c2ccc(OC)cc2)/OC1=O
